{"source": "patent US12702643B2", "about": "“Ion-exchange composition with water-soluble mucoadhesive polymers” (Fertin Pharma A/S, priority 2019, dated 2026)", "details": "increase of nicotine concentration from 100 microgram/mL to 14,000 microgram/mL"}
{"smiles": "CN1CCCC1c1cccnc1", "note": "(stereo not shown) [nicotine]", "values": [{"measurement": "Permeability of nicotine across the buccal mucosa", "value": "decrease of about a factor of two"}]}
